Laboratory results from patent US6737383B1, “Herbicidal oxadiazolidines” (priority 1999, dated 2004).

Legend:
smallflower flatsedge = assay: Test B flood test smallflower flatsedge; format: in vivo, Cyperus difformis
Method in brief: (§1)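 Flood test on plants grown to the 2-leaf stage; treated plants kept in greenhouse twelve to sixteen days, then visually rated against controls on a 0 (no effect) to 10 (complete control) scale.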

bamyardgrass = assay: Test B flood test barnyardgrass; format: in vivo, Echinochloa crus-galli
Method in brief: as §1

rice = assay: Test B flood test rice; format: in vivo, Oryza sativa
Method in brief: as §1

pigweed = assay: Test B pre/postemergence pigweed; format: in vivo, Amaranthus retroflexus; conditions: for Redroot pigweed plant response rating: Postemergence; for Plant response rating, Redroot pigweed: Preemergence
Method in brief: (§2)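 Response is a visual 0-to-10 score relative to untreated plants, where 0 means no effect and 10 means complete control, taken twelve to sixteen days after application. Treatments went onto soil at planting and onto foliage of 1- to 4-leaf plants, using a surfactant-containing non-phytotoxic solvent.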

crabgrass = assay: Test B pre/postemergence crabgrass; format: in vivo, Digitaria sanguinalis; conditions: for Crabgrass plant response rating: Postemergence; for Plant response rating, Crabgrass: Preemergence
Method in brief: as §2

purple nutsedge = assay: Test B pre/postemergence purple nutsedge; format: in vivo, Cyperus rotundus; conditions: for Nutsedge plant response rating: Postemergence; for Plant response rating, Nutsedge: Preemergence
Method in brief: as §2

velvetleaf = assay: Test B pre/postemergence velvetleaf; format: in vivo, Abutilon theophrasti; conditions: for Velvetleaf plant response rating: Postemergence; for Plant response rating, Velvetleaf: Preemergence
Method in brief: as §2

surinam grass = assay: Test B pre/postemergence surinam grass; format: in vivo, Brachiaria decumbens; conditions: for B. signalgrass plant response rating: Postemergence; for Plant response rating, B. signalgrass: Preemergence
Method in brief: as §2

corn = assay: Test B pre/postemergence corn; format: in vivo, Zea mays; conditions: for Corn plant response rating: Postemergence; for Plant response rating, Corn: Preemergence
Method in brief: as §2

wild oat = assay: Test B pre/postemergence wild oat; format: in vivo, Avena fatua; conditions: for Wild oats plant response rating: Postemergence; for Plant response rating, Wild oats: Preemergence
Method in brief: as §2

wheat = assay: Test B pre/postemergence wheat; format: in vivo, Triticum aestivum; conditions: for Wheat plant response rating: Postemergence; for Plant response rating, Wheat: Preemergence
Method in brief: as §2

cocklebur = assay: Test B pre/postemergence cocklebur; format: in vivo, Xanthium strumarium; conditions: for Cocklebur plant response rating: Postemergence; for Plant response rating, Cocklebur: Preemergence
Method in brief: as §2

bedstraw = assay: Test B pre/postemergence bedstraw; format: in vivo, Galium aparine; conditions: for Bedstraw plant response rating: Postemergence
Method in brief: as §2

rape = assay: Test B pre/postemergence rape; format: in vivo, Brassica napus; conditions: for Rape plant response rating: Postemergence; for Plant response rating, Rape: Preemergence
Method in brief: as §2

morningglory = assay: Test B pre/postemergence morningglory; format: in vivo, Ipomoea hederacea; conditions: for Morningglory plant response rating: Postemergence; for Plant response rating, Morningglory: Preemergence
Method in brief: as §2

giant foxtail = assay: Test B pre/postemergence giant foxtail; format: in vivo, Setaria faberii; conditions: for Giant foxtail plant response rating: Postemergence; for Plant response rating, Giant foxtail: Preemergence
Method in brief: as §2

soybean = assay: Test B pre/postemergence soybean; format: in vivo, Glycine max; conditions: for Soybean plant response rating: Postemergence; for Plant response rating, Soybean: Preemergence
Method in brief: as §2

sugar beet = assay: Test B pre/postemergence sugar beet; format: in vivo, Beta vulgaris; conditions: for Sugarbeets plant response rating: Postemergence; for Plant response rating, Sugarbeets: Preemergence
Method in brief: as §2

duck salad = assay: Test B flood test duck salad; format: in vivo, Heteranthera limosa
Method in brief: as §1

blackgrass = assay: Test B pre/postemergence blackgrass; format: in vivo, Alopecurus myosuroides; conditions: for Blackgrass plant response rating: Postemergence; for Plant response rating, Blackgrass: Preemergence
Method in brief: as §2

[1] = Pre-emergence, Rate 1000 g/ha, scale 0 to 10 (0 no effect, 10 complete control)
[2] = Rate 125 g/ha, under heading Pre-emergence, flood test species, visual evaluation after twelve to sixteen days
[3] = Rate 250 g/ha, Pre-emergence (flood test species), scale 0 to 10, 0 is no effect, 10 is complete control
[4] = Rate 500 g/ha, Pre-emergence section of Table B, 0 to 10 scale (0 no effect, 10 complete control)
[5] = Rate 125 g/ha, scale of 0 to 10 where 0 is no effect and 10 is complete control
[6] = Rate 1000 g/ha, scale 0 to 10 (0 no effect, 10 complete control)
[7] = Rate 500 g/ha, scale of 0 to 10 where 0 is no effect and 10 is complete control
[8] = Rate 250 g/ha, scale 0 to 10, 0 is no effect, 10 is complete control
[9] = Rate 500 g/ha, scale 0 to 10, 0 is no effect, 10 is complete control
[10] = Rate 250 g/ha, scale 0 to 10 (0 no effect, 10 complete control)

CCOC(=O)CC(C(=O)OCC)n1c(=O)on(C(=O)N(c2ccc(Cl)cc2)C(C)C)c1=O (stereo not drawn) [Compound 681]
S. Flatsedge plant response rating (smallflower flatsedge; [1]): 0
S. Flatsedge plant response rating (0 to 10 scale, 0 is no effect, 10 is complete control) (smallflower flatsedge; [2]): 0
S. Flatsedge plant response rating (smallflower flatsedge; [3]): 0
S. Flatsedge plant response rating (smallflower flatsedge; [4]): 0
Barnyardgrass plant response rating (bamyardgrass; [1]): 0
Barnyardgrass plant response rating (0 to 10 scale, 0 is no effect, 10 is complete control) (bamyardgrass; [2]): 0
Barnyardgrass plant response rating (bamyardgrass; [3]): 0
Barnyardgrass plant response rating (bamyardgrass; [4]): 0
Rice plant response rating (rice; [1]): 0
Rice plant response rating (0 to 10 scale, 0 is no effect, 10 is complete control) (rice; [2]): 0
Rice plant response rating (rice; [3]): 0
Rice plant response rating (rice; [4]): 0
Redroot pigweed plant response rating (pigweed; [5]): 0
Redroot pigweed plant response rating (pigweed; [6]): 7
Plant response rating, Redroot pigweed (pigweed; [5]): 0
Plant response rating, Redroot pigweed (pigweed; [7]): 3
Redroot pigweed plant response rating (pigweed; [8]): 2
Redroot pigweed plant response rating (pigweed; [9]): 6
Plant response rating, Redroot pigweed (pigweed; [6]): 5
Crabgrass plant response rating (crabgrass; [5]): 0
Crabgrass plant response rating (crabgrass; [6]): 2
Plant response rating, Crabgrass (crabgrass; [5]): 0
Plant response rating, Crabgrass (crabgrass; [10]): 2
Plant response rating, Crabgrass (crabgrass; [7]): 7
Crabgrass plant response rating (crabgrass; [8]): 0
Crabgrass plant response rating (crabgrass; [9]): 0
Plant response rating, Crabgrass (crabgrass; [6]): 8
Nutsedge plant response rating (purple nutsedge; [5]): 0
Plant response rating, Nutsedge (purple nutsedge; [5]): 0
Plant response rating, Nutsedge (purple nutsedge; [7]): 0
Nutsedge plant response rating (purple nutsedge; [8]): 0
Plant response rating, Nutsedge (purple nutsedge; [6]): 0
Velvetleaf plant response rating (velvetleaf; [5]): 0
Plant response rating, Velvetleaf (velvetleaf; [5]): 0
Plant response rating, Velvetleaf (velvetleaf; [7]): 0
Velvetleaf plant response rating (velvetleaf; [8]): 0
Velvetleaf plant response rating (velvetleaf; [9]): 0
Plant response rating, Velvetleaf (velvetleaf; [6]): 0
B. signalgrass plant response rating (surinam grass; [5]): 0
B. signalgrass plant response rating (surinam grass; [6]): 0
Plant response rating, B. signalgrass (surinam grass; [5]): 0
Plant response rating, B. signalgrass (surinam grass; [10]): 0
Plant response rating, B. signalgrass (surinam grass; [7]): 0
B. signalgrass plant response rating (surinam grass; [8]): 0
B. signalgrass plant response rating (surinam grass; [9]): 0
Plant response rating, B. signalgrass (surinam grass; [6]): 4
Corn plant response rating (corn; [5]): 0
Corn plant response rating (corn; [6]): 0
Plant response rating, Corn (corn; [5]): 0
Plant response rating, Corn (corn; [10]): 0
Plant response rating, Corn (corn; [7]): 0
Corn plant response rating (corn; [8]): 0
Corn plant response rating (corn; [9]): 0
Plant response rating, Corn (corn; [6]): 0
Wild oats plant response rating (wild oat; [5]): 0
Plant response rating, Wild oats (wild oat; [5]): 0
Plant response rating, Wild oats (wild oat; [7]): 0
Wild oats plant response rating (wild oat; [8]): 0
Wild oats plant response rating (wild oat; [9]): 0
Plant response rating, Wild oats (wild oat; [6]): 3
Wheat plant response rating (wheat; [5]): 0
Plant response rating, Wheat (wheat; [5]): 0
Plant response rating, Wheat (wheat; [7]): 0
Wheat plant response rating (wheat; [8]): 0
Wheat plant response rating (wheat; [9]): 0
Plant response rating, Wheat (wheat; [6]): 0
Cocklebur plant response rating (cocklebur; [5]): 0
Cocklebur plant response rating (cocklebur; [6]): 0
Plant response rating, Cocklebur (cocklebur; [5]): 0
Plant response rating, Cocklebur (cocklebur; [10]): 0
Plant response rating, Cocklebur (cocklebur; [7]): 0
Cocklebur plant response rating (cocklebur; [8]): 0
Cocklebur plant response rating (cocklebur; [9]): 0
Bedstraw plant response rating (bedstraw; [5]): 0
Plant response rating, Bedstraw (bedstraw; Preemergence, Rate 125 g/ha, scale of 0 to 10 where 0 is no effect and 10 is complete control): 0
Bedstraw plant response rating (bedstraw; [8]): 0
Rape plant response rating (rape; [5]): 0
Rape plant response rating (rape; [6]): 0
Plant response rating, Rape (rape; [5]): 0
Plant response rating, Rape (rape; [7]): 0
Rape plant response rating (rape; [8]): 0
Rape plant response rating (rape; [9]): 0
Plant response rating, Rape (rape; [6]): 0
Morningglory plant response rating (morningglory; [5]): 0
Plant response rating, Morningglory (morningglory; [5]): 0
Plant response rating, Morningglory (morningglory; [7]): 0
Morningglory plant response rating (morningglory; [8]): 0
Morningglory plant response rating (morningglory; [9]): 7
Plant response rating, Morningglory (morningglory; [6]): 0
Giant foxtail plant response rating (giant foxtail; [5]): 0
Giant foxtail plant response rating (giant foxtail; [6]): 3
Plant response rating, Giant foxtail (giant foxtail; [5]): 0
Plant response rating, Giant foxtail (giant foxtail; [7]): 9
Giant foxtail plant response rating (giant foxtail; [8]): 0
Giant foxtail plant response rating (giant foxtail; [9]): 0
Plant response rating, Giant foxtail (giant foxtail; [6]): 9
Soybean plant response rating (soybean; [5]): 0
Plant response rating, Soybean (soybean; [5]): 0
Plant response rating, Soybean (soybean; [7]): 0
Soybean plant response rating (soybean; [8]): 0
Soybean plant response rating (soybean; [9]): 1
Plant response rating, Soybean (soybean; [6]): 0
Sugarbeets plant response rating (sugar beet; [5]): 0
Plant response rating, Sugarbeets (sugar beet; [5]): 0
Plant response rating, Sugarbeets (sugar beet; [7]): 0
Sugarbeets plant response rating (sugar beet; [8]): 0
Sugarbeets plant response rating (sugar beet; [9]): 0
Plant response rating, Sugarbeets (sugar beet; [6]): 0
Ducksalad plant response rating (duck salad; [1]): 0
Ducksalad plant response rating (0 to 10 scale, 0 is no effect, 10 is complete control) (duck salad; [2]): 0
Ducksalad plant response rating (duck salad; [3]): 0
Ducksalad plant response rating (duck salad; [4]): 0
Blackgrass plant response rating (blackgrass; [5]): 0
Blackgrass plant response rating (blackgrass; [6]): 4
Plant response rating, Blackgrass (blackgrass; [5]): 0
Plant response rating, Blackgrass (blackgrass; [10]): 1
Plant response rating, Blackgrass (blackgrass; [7]): 3
Blackgrass plant response rating (blackgrass; [8]): 0
Blackgrass plant response rating (blackgrass; [9]): 0
Plant response rating, Blackgrass (blackgrass; [6]): 6
